Counter-ions that a name gives are not always drawn. Like-named read-outs stand apart in the source and are kept apart here.
Legend:
[1] = molecular target: T1, rhIGF-1/rhIGFBP-3 drug product (Homo sapiens, UniProt P05019+P17936, DEL119-195); experiment: In vitro physical compatibility of test medications mixed with rhIGF-1/rhIGFBP-3 (visual observation, OD320, pH, osmolality); type: physicochemical; conditions: for visual observation (and OD320) upon mixing: mixture with rhIGF-1/rhIGFBP-3 drug product
T1 construct: purchased Takeda, Lexington, MA, USA

[2] = molecular target: T1, rhIGF-1/rhIGFBP-3 drug product; experiment: Small-molecule chemical compatibility: small-molecule content post mixing by RP-HPLC-UV or ion chromatography; type: physicochemical; conditions: post mixing with rhIGF-1/rhIGFBP-3 drug product, last specified time point(s)
[3] = molecular target: T1, rhIGF-1/rhIGFBP-3 drug product; experiment: Protein-specific (mass spectrometry-based) analyses of rhIGF-1/rhIGFBP-3 chemical compatibility and the final compatibility decision; type: physicochemical
insulin [4] = conditions: cited from earlier work
insulin [5] = conditions: no compatibility data available with insulin
[6] = mixed with rhIGF-1/rhIGFBP-3 drug product at representative clinical doses, room temperature

T1 sequence (P05019 49-118 limits assumed, stated change not applied): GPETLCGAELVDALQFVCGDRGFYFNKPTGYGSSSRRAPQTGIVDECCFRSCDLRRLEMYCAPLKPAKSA
T1 sequence (P17936 28-291, stated change not applied): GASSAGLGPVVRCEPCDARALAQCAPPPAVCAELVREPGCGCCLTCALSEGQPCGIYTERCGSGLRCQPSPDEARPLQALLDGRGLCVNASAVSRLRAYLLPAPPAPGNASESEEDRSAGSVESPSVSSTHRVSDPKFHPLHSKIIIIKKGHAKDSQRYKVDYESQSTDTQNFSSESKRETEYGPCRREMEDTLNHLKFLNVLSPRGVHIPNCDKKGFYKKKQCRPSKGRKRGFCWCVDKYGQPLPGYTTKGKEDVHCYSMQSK

Molecule	physical compatibility with rhIGF-1/rhIGFBP-3 ([1]; conditions and doses tested)	Physical compatibility [1, 6]	Chemical compatibility for small-molecule content (RP-HPLC) [2]	other results
C[C@@H](O)[C@H]1C(=O)N2C(C(=O)O)=C(S[C@@H]3CN[C@H](C(=O)N(C)C)C3)[C@H](C)[C@H]12 [Meropenem]	considered incompatible	No	Yes (Chemical incompatibility was considered to be a loss of the small-molecule content of ~10% or more over the defined testing period)	pH change post mixing ([1]; mixture with rhIGF-1/rhIGFBP-3): Observed pH change of ~2.4 post mixing,
NCC[C@H](O)C(=O)N[C@@H]1C[C@H](N)[C@@H](O[C@H]2O[C@H](CN)[C@@H](O)[C@H](O)[C@H]2O)[C@H](O)[C@H]1O[C@H]1O[C@H](CO)[C@@H](O)[C@H](N)[C@H]1O.O=S(=O)(O)O.O=S(=O)(O)O [Amikacin sulfate]	considered incompatible	No	Yes (Chemical incompatibility was considered to be a loss of the small-molecule content of ~10% or more over the defined testing period)	decrease in pH of mixtures compared with controls ([1]; mixture with rhIGF-1/rhIGFBP-3): Mixtures demonstrated a decrease in pH of ~0.6 units
Cn1c(=O)c2c(ncn2C)n(C)c1=O.O=C(O)CC(O)(CC(=O)O)C(=O)O [Caffeine citrate]	–	–	–	Physical compatibility [1]: Yes^a; pH difference of mixed samples compared with the control [1]: demonstrated ~1.0 unit difference compared; physical compatibility with rhIGF-1/rhIGFBP-3 [1]: physical compatibility was established
Insulin	physical compatibility was established	Yes	Yes (Chemical incompatibility was considered to be a loss of the small-molecule content of ~10% or more over the defined testing period)	–
CC(CCc1ccc(O)cc1)NCCc1ccc(O)c(O)c1 (stereo not shown) [Dobutamine hydrochloride]	considered incompatible	No	Yes (Chemical incompatibility was considered to be a loss of the small-molecule content of ~10% or more over the defined testing period)	visual observation (and OD320) upon mixing [1]: physical compatibility (no precipitation, no; final compatibility decision informed by protein-specific studies / sodium (meta)bisulfite in the formulation [3]: medication is considered incompatible
Cl.NCCc1ccc(O)c(O)c1 [Dopamine hydrochloride]	–	–	–	Physical compatibility [1]: No; pH change post mixing (in words) [1]: A dopamine dose-dependent physical change; physical compatibility with rhIGF-1/rhIGFBP-3 [1]: considered incompatible; effect on rhIGF-1/rhIGFBP-3 drug product in protein-specific analyses [3]: data demonstrated an impact on the rhIGF-
CC1(C)S[C@@H]2[C@H](NC(=O)Cc3ccccc3)C(=O)N2[C@H]1C(=O)[O-].[K+] [Penicillin G, Penicillin G potassium]	considered incompatible	No	Yes (Chemical incompatibility was considered to be a loss of the small-molecule content of ~10% or more over the defined testing period)	pH shift ([1]; highest penicillin G dose of 125,000 Units/kg/30 min): pH shift (up to 1.3 pH units for the highest
Cc1ncc2n1-c1ccc(Cl)cc1C(c1ccccc1F)=NC2 [Midazolam, Midazolam hydrochloride]	–	–	–	Physical compatibility [1]: Yes; physical compatibility with rhIGF-1/rhIGFBP-3 [1]: physical compatibility was established; compatibility with insulin (insulin [4]): established
CC1(C)S[C@@H]2[C@H](NC(=O)[C@H](N)c3ccccc3)C(=O)N2[C@H]1C(=O)O [Ampicillin sodium]	considered incompatible	No	Yes (Chemical incompatibility was considered to be a loss of the small-molecule content of ~10% or more over the defined testing period)	pH change post mixing (in words) ([1]; mixture with rhIGF-1/rhIGFBP-3): Observed change in pH of rhIGF-1/rhIGFBP-3
NS(=O)(=O)c1cc(C(=O)O)c(NCc2ccco2)cc1Cl [Furosemide]	considered incompatible	No	Yes (Chemical incompatibility was considered to be a loss of the small-molecule content of ~10% or more over the defined testing period)	time after mixing to cloudiness / turbidity ([1]; mixture with rhIGF-1/rhIGFBP-3): ≤ 30 min; visual observation (and OD320) upon mixing [1]: Cloudiness observed
CN[C@H](CC(C)C)C(=O)N[C@H]1C(=O)N[C@@H](CC(N)=O)C(=O)N[C@H]2C(=O)N[C@H]3C(=O)N[C@H](C(=O)N[C@H](C(=O)O)c4cc(O)cc(O)c4-c4cc3ccc4O)[C@H](O)c3ccc(c(Cl)c3)Oc3cc2cc(c3O[C@@H]2O[C@H](CO)[C@@H](O)[C@H](O)[C@H]2O[C@H]2C[C@](C)(N)[C@H](O)[C@H](C)O2)Oc2ccc(cc2Cl)[C@H]1O [Vancomycin hydrochloride]	–	–	–	Physical compatibility [1]: Yes; compatibility with insulin (insulin [4]): established
OC(Cn1cncn1)(Cn1cncn1)c1ccc(F)cc1F [Fluconazole]	physical compatibility was established	Yes	Yes (Chemical incompatibility was considered to be a loss of the small-molecule content of ~10% or more over the defined testing period)	expected reaction on the basis of theoretical evaluation and the solution pH (insulin [5]): a reaction is not expected
Gentamicin	–	–	Yes (Chemical incompatibility was considered to be a loss of the small-molecule content of ~10% or more over the defined testing period)	–
NC[C@H](O)c1ccc(O)c(O)c1 [Norepinephrine bitartrate]	–	–	–	pH change post mixing (in words) [1]: Only the lowest dose was physically; physical compatibility with rhIGF-1/rhIGFBP-3 [1]: considered incompatible
rhIGF-1/rhIGFBP-3 drug product: recombinant human protein complex of insulin-like growth factor-1 (IGF-1) and insulin-like growth factor binding protein-3 (IGFBP-3)	–	–	–	pH value of the unmixed product ([1]; not in the mixture): 5.5

Source: US20260248894A1, “COMBINATION THERAPY FOR PRETERM INFANTS” (Oak Hill Bio Ltd, priority 2022, published 2026)
